Data from patent US20050153899A1, “Therapeutical conversion” (priority 2003, published 2005).

Assays:
GH or IGF-1 excess = conditions: primary or secondary therapy; cited from earlier work
patients with acromegaly [1] = assay: Safety monitoring in conversion study: adverse events, liver function tests, blood pressure, pulse, weight; type: in vivo, human
Method: (§1) This open-label study included patients 18 years of age or older with a previously established diagnosis of acromegaly. […] Treatment with a dopamine agonist was discontinued 4 weeks before the baseline visit. Treatment with pegvisomant 10 mg/day subcutaneous was started at week 4 and continued through week 32. […] A more rapid dose escalation was allowed in a few patients based on the effective dose in the previous study. Vital signs and adverse events were monitored at each study visit; clinical and laboratory assessments were conducted at screening and baseline visits and regularly at 4-week intervals during the study. Laboratory assessments included serum IGF-I and GH concentrations, liver chemistry tests (alanine aminotransferase [ALT], aspartate transaminase [AST], bilirubin, and alkaline phosphatase), and routine laboratory tests (hematology, serum chemistry, and urinalysis). For the primary outcome measure, exact binomial 2-sided 95% confidence intervals were constructed. All other analyses were descriptive in nature. For continuous measurements, descriptive summaries and subsequent analyses included the number of patients for which data were available, mean, median, standard deviation, and minimum/maximum values. […] The descriptive summaries for categorical or discrete measurements included the number and percentage of patients in each category. […] Secondary outcomes and safety were reported as descriptive summaries.

pituitary tumor = system: pituitary tumor; set-up: species or system human; conditions: in vivo
Method: Magnetic resonance imaging of the pituitary was performed at baseline and at the end of the study. Pituitary tumor volumes were calculated from the images by a single evaluator. Ultrasound of the gallbladder was performed at baseline and week 32.

serum IGF-I = assay: Serum IGF-I concentration (RIA) in open-label octreotide LAR to pegvisomant conversion study; type: in vivo, human
Method: as §1, with “urinalysis). Assaying of serum IGF-I and GH concentrations was performed by an independent laboratory (Endocrine Sciences, Inc., Calabasas Hills, Calif.). Following separation of serum IGF-I from binding proteins by acid-ethanol extraction, serum IGF-I concentrations were determined using the IGF-I Nichols Kit (Cat. […] Serum GH concentrations were measured using a standard double antibody RIA with 125I-labeled recombinant human GH (hGH) tracer and primary rabbit anti-hGH antisera. Bound radioactive antibody-bound hGH was detected using a gamma counter. Specific radioactive hGH binding for each dilution was determined by subtracting the respective nonspecific binding, and the net radioactive hGH binding was calculated as a percentage of the total radioactive hGH added to each tube. Dilutions having a specific binding >2% were designated positive.” for “urinalysis).”

patients with acromegaly [2] = assay: Signs and symptoms of acromegaly, overall health status, ring size; type: in vivo, human; conditions: after conversion from octreotide LAR
Method: Signs and symptoms of acromegaly and overall health status were assessed by use of questionnaire that patients completed. Disease signs and symptoms were scored using an […] (0=absent to 8=severe, incapacitating); overall health status was scored using a 10-point scale (0=worst possible to 10=best possible). Additionally, change in ring size of the fourth digit of the right hand (fifth digit if the fourth was too large) was measured using a jeweler's ring sizing system (plastic) over the course of the study.

patients with acromegaly [3] = assay: Glucose homeostasis in conversion study: HbA1c, fasting plasma glucose, insulin, OGTT; type: in vivo, human
Method: Glycolated hemoglobin (HbA1c), fasting plasma glucose, and insulin concentrations were used to monitor the effects of pegvisomant on glucose homeostasis. […] Patients also underwent oral glucose tolerance testing (OGTT) to determine the glucose area under the concentration-time curve (AUC) at week 4 before initiation of pegvisomant and at week 32. Plasma glucose levels were assessed at −15, 0, 30, 60, 90, 120, 150, and 180 minutes following an oral glucose load.
For the primary outcome measure, exact binomial 2-sided 95% confidence intervals were constructed. All other analyses were descriptive in nature. For continuous measurements, descriptive summaries and subsequent analyses included the number of patients for which data were available, mean, median, standard deviation, and minimum/maximum values. […] The descriptive summaries for categorical or discrete measurements included the number and percentage of patients in each category. Statistical significance defined as a P value of <0.05 was determined by: 1) McNemar's Chi-square test for liver function tests and the proportion of patients with IGF-I below upper limit of normal at during the study versus baseline, or 2) the signed rank test for all other comparisons. Secondary outcomes and safety were reported as descriptive summaries.

[4] = patients with normal IGF-I at baseline (n=13)

In the case of `C[C@@H](O)[C@@H]1NC(=O)[C@H](CCCCN)NC(=O)[C@@H](Cc2c[nH]c3ccccc23)NC(=O)[C@H](Cc2ccccc2)NC(=O)[C@@H](NC(=O)[C@H](N)Cc2ccccc2)CSSC[C@@H](C(=O)N[C@H](CO)[C@@H](C)O)NC1=O` [Octreotide], the “patients in whom GH or IGF-1 excess is controlled” value (GH or IGF-1 excess) is listed as 50-60%.
With pegvisomant the “clinically relevant changes in serum ALT, ASP or bilirubin in patients with normal liver function at baseline” value (patients with acromegaly [1]; in vivo) was “No patient”, the “elevations in blood pressure or pulse” value (patients with acromegaly [1]; in vivo) was “No significant or clinically relevant elevations” and the “mean diastolic blood pressure” value (patients with acromegaly [1]; in vivo) was 76 mm Hg. The “mean systolic blood pressure” value (patients with acromegaly [1]; in vivo) was 126 mm Hg, the “patients reporting at least 1 adverse event” value (patients with acromegaly [1]; in vivo) was 26.4% and the “patients with abnormal liver function tests (≧3 times ULN)” value (patients with acromegaly [1]; in vivo) was “No patients had abnormal liver function tests”. The “patients with treatment-related constipation” value (patients with acromegaly [1]; in vivo) was 3.8%, the “patients with treatment-related injection-site reaction” value (patients with acromegaly [1]; in vivo) was 3.8% and the “serious treatment-related adverse events” value (patients with acromegaly [1]; in vivo) was “No serious treatment-related adverse events”. The “patients with anomalous spikes in ALT levels” value (patients with acromegaly [1]; week 20 to week 24) was 5.7%, the “pituitary volume, mean change” value (pituitary tumor) was 0.06 cm3 and the “pituitary volume, median change” value (pituitary tumor) was 0 cm3. The “pituitary volume, range of change” value (pituitary tumor) was −0.73 to 1.1 cm3, the “cumulative percentage of patients achieving at least one IGF-I concentration within normal age-related range” value (serum IGF-I; any time during the study) was 85% and the “change in IGF-I concentrations” value (serum IGF-I; patients with baseline IGF-I above age-adjusted reference range) was “significantly reduced”. The “change in IGF-I concentrations” value (serum IGF-I; patients with normal IGF-I levels at baseline) was “not significantly changed”, the “serum IGF-I concentration” value (serum IGF-I; week 32, all patients) was 292 ng/mL and the “patients with normalized IGF-I concentrations” value (serum IGF-I; week 32, 38 of 49 patients) was 77.6%. The “mean overall signs-and-symptoms scores, overall health status, measures of ring size” value (patients with acromegaly [2]) was “improved”, the “change in median HbA1c” value (patients with acromegaly [3]; all patients, 32-week study) was “significant decrease” and the “decrease in fasting plasma glucose” value (patients with acromegaly [3]; [4]) was 1.7 mmol/L. For the same compound, the “decrease in median HbA1c” value (patients with acromegaly [3]; [4]) was 0.2%, the peak insulin concentration (patients with acromegaly [3]; week 12) was 90 pmol/L and the glucose AUC during 2-hour OGTT (patients with acromegaly [3]; week 32) was 1280 mmol·min/L. For the same compound, the insulin/glucose ratio (patients with acromegaly [3]; week 32) was 13.6, the median fasting glucose (patients with acromegaly [3]; week 32) was 4.7 mmol/L and the median insulin concentration (patients with acromegaly [3]; week 32) was 69 pmol/L.
